# Test results as given in patent US6746668B2, “Apo-2 ligand” (Genentech, Inc., priority 1996, dated 2004).
# What was measured:
# 9D cells [1] = assay: Time course and dose-dependence of cell death (dead/live counts, hemocytometer), 9D cells; assay type: cell-based, human
# Description: To examine the time-course of the Apo-2 ligand apoptotic activity, 9D cells were incubated in microtiter dishes (5×10^4 cells/well) with a media control or Apo-2 ligand (3 μg/ml, prepared as described in Example 3) for a period of time ranging from 0 hours to 50 hours. Following the incubation, the numbers of dead and live cells were determined by microscopic examination using a hemocytometer.
# To determine dose-dependency of Apo-2 ligand-induced cell death, 9D cells were incubated (5×10^4 cells/well) for 24 hours with serial dilutions of a media control or Apo-2 ligand (prepared as described in Example 3). The numbers of dead and live cells following the incubation were determined as described above. The results are illustrated in FIG. 3B. Specific apoptosis was determined by subtracting the % apoptosis in the control from % apoptosis in Apo-2 ligand treated cells. Half-maximal activation of apoptosis occurred at approximately 0.1 μg/ml (approximately 1 nM), and maximal induction occurred at about 1 to about 3 μg/ml (approximately 10 to 30 nM).
# [2] = system: peripheral blood T lymphocytes; assay: Apoptosis by FACS, peripheral blood T cells; assay type: cell-based, human; conditions: for % apoptotic cells: Apo-2L 3 μg/ml, mean ±SE
# [3] = system: ME-180 (human cervical carcinoma); assay: Apoptosis by FACS, ME-180 cells; assay type: cell-based
# Description: (§1) The 9D cells (FIG. 2B), Raji cells (FIG. 2C), and Jurkat cells (FIG. 2D) were incubated (1×10^6 cells/well) for 24 hours with a media control (left panels), Apo-2 ligand (3 μg/ml, prepared as described in Example 3) (center panels), or […], CH11 (1 μg/ml) (right panels). The cells were then washed, stained with PI and with […] (FITC)-conjugated annexin V (purchased from Brand Applications) and analyzed by flow cytometry. Cells negative for both PI and annexin V staining (quadrant 3) represent live cells; PI-negative, annexin V-positive staining cells (quadrant 4) represent early apoptotic cells; PI-positive, annexin V-positive staining cells (quadrant 2) represent primarily cells in late stages of apoptosis. […]
# (§2) In the assay, 1×10^6 cells of each cell line were incubated for 24 hours with a media control, Apo-2 ligand (3 μg/ml, prepared as described in Example 3), or anti-Apo-1 monoclonal antibody, CH11 (1 μg/ml). Following the incubation, apoptosis was measured by FACS analysis, as described in Example 4.
# [4] = system: 293 (adenovirus-transformed human embryonic kidney cells); assay: Apoptosis by FACS, 293 cells; assay type: cell-based
# Description: as §1, §2
# [5] = system: Raji cells (human Burkitt's lymphoma B cell line); assay: Apoptosis by FACS (PI / FITC-annexin V), Raji cells; assay type: cell-based; conditions: 24 hours, CH11 1 μg/ml
# Description: (§3) The effects of the Apo-2 ligand on the 9D cells, as well as on Raji cells (human Burkitt's lymphoma B cell line, ATCC CCL 86) and Jurkat cells (human acute T cell leukemia cell line, ATCC TIB 152) were further analyzed by FACS. The FACS analysis was conducted, using established criteria for apoptotic cell death, namely, the relation of fluorescence staining of the cells with two markers: (a) propidium iodide (“PI”) dye, which stains apoptotic but not live cells, and (b) a fluorescent derivative of the protein, annexin V, which binds to the exposed phosphatidylserine found on the surface of apoptotic cells, but not on live cells [Darzynkiewicz et al., Methods in Cell Biol., 41:15-38 (1994); Fadok et al., J. Immunol., 148:2207-2214 (1992); Koopman et al., Blood, 84:1415-1420 (1994)].
# (§4) The 9D cells (FIG. 2B), Raji cells (FIG. 2C), and Jurkat cells (FIG. 2D) were incubated (1×10^6 cells/well) for 24 hours with a media control (left panels), Apo-2 ligand (3 μg/ml, prepared as described in Example 3) (center panels), or […], CH11 (1 μg/ml) (right panels). The cells were then washed, stained with PI and with […] (FITC)-conjugated annexin V (purchased from Brand Applications) and analyzed by flow cytometry. […]
# [6] = system: Jurkat cells (human acute T cell leukemia cell line); assay: Apoptosis by FACS (PI / FITC-annexin V), Jurkat cells; assay type: cell-based; conditions: 24 hours, CH11 1 μg/ml
# Description: as §3, §4
# [7] = system: U-937 (human hystiocytic lymphoma); assay: Apoptosis by FACS, U-937 cells; assay type: cell-based
# Description: as §1, §2
# [8] = system: A549 (human lung carcinoma); assay: Apoptosis by FACS, A549 cells; assay type: cell-based
# Description: as §1, §2
# Jurkat cells = assay: Internucleosomal DNA fragmentation, Jurkat cells; assay type: cell-based, human; conditions: 6 hours, Apo-2 ligand 3 μg/ml
# Description: (§5) The activation of internucleosomal DNA fragmentation by Apo-2 ligand was also analyzed. Jurkat cells (left lanes) and 9D cells (right lanes) were incubated (2×10^6 cells/well) for 6 hours with a media control or Apo-2 ligand (3 μg/ml, prepared as described in Example 3), The DNA was then extracted from the cells and labeled with ^32P-ddATP using terminal transferase. The labeled DNA samples were subjected to electrophoresis on 2% agarose gels and later analyzed by autoradiography [Moore et al., Cytotechnology, 17:1-11 (1995)]. […] Such DNA fragmentation is characteristic of apoptosis [Cohen, Advances in Immunol., 50:55-85 (1991)].
# 9D cells [9] = assay: Internucleosomal DNA fragmentation, 9D cells; assay type: cell-based, human; conditions: 6 hours, Apo-2 ligand 3 μg/ml
# Description: as §5
# [10] = system: MCF7 (human breast carcinoma); assay: Apoptosis by FACS, MCF7 cells; assay type: cell-based
# Description: as §1, §2
# [11] = system: peripheral blood B lymphocytes; assay: Apoptosis by FACS, peripheral blood B cells; assay type: cell-based, human; conditions: for % apoptotic cells: 3 days, Apo-2L 3 μg/ml, mean ±SE
# Description: Peripheral blood mononuclear cells (“PBMC”) were isolated from the blood of human donors by Ficoll density gradient centrifugation using Lymphocyte Separation Medium (LSM®, Organon Teknika). An isolated population of T cells was prepared from the PBMC by removal of B cells through surface Ig binding to an anti-Ig column and removal of monocytes through Fc receptor binding to an Ig column (R & D Systems). An isolated population of B cells was prepared from the PBMC by complement-mediated elimination of T cells reacted with the anti-CD3 antibody produced by the OKT3 myeloma (ATCC, CRL 8001) and of monocytes reacted with a monocyte-specific antibody produced by the 4F2C13 hybridoma (ATCC, HB 22). Additional monocyte removal was accomplished by adherence to plastic.
# The freshly isolated peripheral blood B or T cells (1×10^6 cells/well) were cultured for 3 days in the presence of a media control or Apo-2 ligand (3 μg/ml, prepared as described in Example 3). For activation, B cells were treated simultaneously with lipopolysaccharide ([…], 1 μg/ml), and T cells were treated with phorbol myristate acetate (“PMA”, 10 ng/ml) plus ionomycin (1 μg/ml) (Sigma). For interleukin-2 (“IL-2”) pretreatment, T cells were cultured for 3-5 days in the presence of IL-2 (50 U/ml) (Genzyme) before exposure to Apo-2 ligand. Apoptosis was determined using FACS analysis essentially as described above in Example 4. However, B cells were gated by anti-CD19/CD20 antibodies (Jackson Immunoresearch), and T cells were gated by anti-CD4/CD8 antibodies (Jackson Immunoresearch). The results are shown in Table 2 below, representing means ±SE of independent experiments [B lymphocytes—9 experiments; T lymphocytes—8 experiments; T lymphocytes plus IL-2-5 experiments], in which 50,000 cells were analyzed per data point. Statistical analysis was performed using the student t-test. In Table 2, a=p<0.05 and b=p<0.02 relative to the respective control.
# [12] = system: 9D cells (EBV-transformed human peripheral blood B cells); assay: Apoptosis by FACS (PI / FITC-annexin V), 9D cells; assay type: cell-based; conditions: 24 hours, CH11 1 μg/ml
# Description: as §3, §4
# [13] = system: HeLa (human cervical carcinoma); assay: Apoptosis by FACS, HeLa cells; assay type: cell-based
# Description: as §1, §2
# [14] = Apo-2 ligand as compared to CH11 anti-Apo-1 antibody
substance,measurement,setting,value
"Apo-2L: purified, soluble recombinant human Apo-2 ligand: His10-tagged residues 114-281 of SEQ ID NO:1, expressed in baculovirus-infected Sf9 cells (Example 3)",half-maximal activation of apoptosis,"9D cells [1]; 24 hours, specific apoptosis (control subtracted)",approximately 0.1 μg/ml
same,EC50,"9D cells [1]; 24 hours, specific apoptosis (control subtracted), read-out: half-maximal activation of apoptosis",~1 nM
same,time to maximal levels of cell death,"9D cells [1]; Apo-2 ligand 3 μg/ml, 0 to 50 hours",≤ 24 h
same,"induction of apoptosis, in words",[2]; T cells activated with PMA and ionomycin,induced significant apoptosis
same,% apoptotic cells,"[2]; T lymphocytes + PMA 10 ng/ml / ionomycin 1 μg/ml, 3 days, control 40.3 ± 4.4",54.2%
same,% apoptotic cells,"[2]; T lymphocytes, IL-2 (50 U/ml, 3-5 days) pretreatment, 5 experiments, control 13.7 ± 1.2",34.5%
same,% apoptotic cells,"[2]; T lymphocytes, no treatment, 3 days, 8 experiments, control 6.3 ± 0.6",8.2 ± 0.8%
same,"sensitization to Apo-2 ligand-induced death, in words",[2]; peripheral T cells pretreated with IL-2,did sensitize
same,sensitivity to induction of apoptosis,[3],quite sensitive
same,% apoptotic cells,"[3]; 24 hours, Apo-2L 3 μg/ml, CH11 1 μg/ml, control 8.6",80.7%
same,sensitivity to induction of apoptosis,[4],resistant
same,% apoptotic cells,"[4]; 24 hours, Apo-2L 3 μg/ml, CH11 1 μg/ml, control 12.3",12.2%
same,% apoptotic cells,"[5]; Apo-2L 3 μg/ml, control 35.9",73.4%
same,"induction of apoptosis (annexin V binding, PI uptake), in words",[5]; Apo-2 ligand 3 μg/ml,induced a similar response
same,% apoptotic cells,"[6]; Apo-2L 3 μg/ml, control 5.9",77.0%
same,"induction of apoptosis (annexin V binding, PI uptake), in words",[6]; Apo-2 ligand 3 μg/ml,induced a similar response
same,% apoptotic cells,"[7]; 24 hours, Apo-2L 3 μg/ml, CH11 1 μg/ml, control 3.6",62.3%
same,sensitivity to induction of apoptosis,[7]; [14],markedly more sensitive
same,% apoptotic cells,"[8]; 24 hours, Apo-2L 3 μg/ml, CH11 1 μg/ml, control 16.5",74.6%
same,sensitivity to induction of apoptosis,[8]; [14],markedly more sensitive
same,internucleosomal DNA fragmentation,Jurkat cells,induced internucleosomal DNA fragmentation
same,internucleosomal DNA fragmentation,9D cells [9],induced internucleosomal DNA fragmentation
same,% apoptotic cells,"[10]; 24 hours, Apo-2L 3 μg/ml, CH11 1 μg/ml, control 39.9",47.3%
same,sensitivity to induction of apoptosis,[10]; [14],equally sensitive
same,"induction of apoptosis, in words",[11]; B cells activated by LPS,induced significant apoptosis
same,% apoptotic cells,"[11]; B lymphocytes + LPS 1 μg/ml, control 44.8 ± 2.8",55.9%
same,% apoptotic cells,"[11]; B lymphocytes, no treatment, 9 experiments, control 40.1 ± 4.1",53.2%
same,"induction of apoptosis, in words",[11]; unstimulated B cells,induced significant apoptosis
same,% apoptotic cells,"[12]; Apo-2L 3 μg/ml, control 22.5",92.4%
same,"induction of apoptosis (annexin V binding, PI uptake), in words",[12]; Apo-2 ligand 3 μg/ml,induced apoptosis
same,% apoptotic cells,"[13]; 24 hours, Apo-2L 3 μg/ml, CH11 1 μg/ml, control 5.3",18.6%
same,sensitivity to induction of apoptosis,[13]; [14],equally sensitive
